Here are results for one compound from patent US20120190751A1, “COMPOUNDS FOR TREATMENTS OF INFLAMMATION” (ANA-MAR AB, priority 2009, published 2012).

Entries after “also recorded” stand apart in the source; their conditions may differ.

The test system of test [1] is rat synoviocytes. The test can be described thus: IL-6 release from LPS-stimulated rat synoviocytes. The test is classed as cell-based. The following applies: 72 hours. The procedure: Pannus from the inflamed knee of rats with antigen-induced arthritis (AIA) (see description of this model below; Andersson, S. E et al., (1998), J. Rheumatology 25: 1772-1777) was isolated three to five days after challenge, stored in PBS supplemented with 100 U/ml Penicillin-Streptomycin (PEST, Invitrogen Corporation) and 2.5 μg/ml Fungizone (Amphotericin B, Invitrogen) until it was further processed within a couple of hours. The PBS was discarded and the tissue cut in small pieces followed by digestion in a collagenase solution (400 U/ml; type 1 CLS-1, Worthington) for 3 hours at 37° C., 5% CO2. The suspension was filtered through a nylon mesh (70 μm), washed with tissue culture medium (RPMI-1640 with L-glutamine, Invitrogen, supplemented with 10% fetal bovine serum (FBS) and 100 U/ml PEST and 2.5 μg/ml Fungizone) and centrifuged (257 g). The cells were resuspended in tissue culture medium and seeded in cell culture flasks (T25, TPP). After overnight culture, nonadherent cells were removed by exchanging the medium, the cells were incubated at 37° C., 5% CO2, the medium was exchanged every third day until confluence was reached (7-10 days). The culture consisted of a mixed cell population with the principal constituents being fibroblasts and macrophages (Andersson, S. E. et al. (2000), Eur. J. Pharm. Sci 9: 333-343).
The cells were counted and reseeded at a density of 10000 cells/0.2 ml in 96-well cell culture plates (Nunc). After overnight culture the cells were stimulated with 50 ng/ml Lipopolysaccharide (LPS, E. coli 055:B5, Sigma) with simultaneous addition of 0.1, 1 and 10 μM N-(2-chloro-3,4-dimethoxybenzylideneamino)guanidine and 1 μM of 5-HT2 receptor agonists (triplicates). The cells were incubated for 72 hours after which the supernatants were collected and analyzed for IL-6 (OptEIA™ Set Rat IL-6). The effect of treatment on cell viability was determined using the cell proliferation reagent, WST-1 (Roche Diagnostics).
Inflamed knee joints of rats with antigen-induced arthritis (AIA) were dissected four days after intra-articular challenge with antigen. Freshly isolated pannus tissue was collected in phosphate-buffered saline (PBS) supplemented with 100 U/ml penicillin, streptomycin (PEST, Invitrogen) and 2.5 μg/ml Fungizone (Amphotericin B, Invitrogen), finely minced with a pair of scissors and digested with 400 U/ml collagenase (type 1 CLS-1, Worthington) in RPMI 1640 (Gibco) supplemented with PEST and fungizone (2.5 μg/ml) for 3 hours. The cell suspension was filtered through a 70 μm nylon mesh and the cells collected by centrifugation at 257×g, 10 min. The cells were resuspended in RPMI 1640 supplemented with 10% FBS (Gibco), PEST and fungizone (culture medium), plated in T25 flasks (TPP Cat#90026). After overnight incubation nonadherent cells were removed and the culture medium was replaced every third day until the cells approached confluency (normally achieved within 7-10 days). At near-confluency, the cells were washed with PBS and harvested by trypsination. After washing in PBS the cells were resuspended in culture medium and seeded at 10.000 cells/well/0.2 ml in 96 well plates (Nunc cat#167008). After overnight culture the culture medium was replaced with fresh medium and 50 ng/ml LPS (Sigma, L6529) together with different concentrations of 5-HT, 5-HT2 receptor agonists and/or antagonists and N-(2-chloro-3,4-dimethoxybenzylideneamino)guanidine. The cells were incubated for 72 hours after which the supernatants were collected and analyzed for IL-6 (BD OptEIA™ Set). The effect of treatment on cell viability was determined using the cell proliferation reagent, WST-1 (Roche Diagnostics). In another experiment rat synoviocytes were incubated with 50 ng/ml LPS for 2 or 22 hours were after the levels of 5-HT was analysed in the cell culture medium using a Serotonin ELISA kit (IBL International, RE59121). We also incubated rat synoviocytes with 5-HT (10 μM) and measured the gene expression of 5-HT2B and 5-HT2C.

For test [2], the system named is formalin-induced pain. The test can be described thus: Formalin test, inflammatory pain model. The test is classed as in vivo, rat. The following applies: 30 mg/kg orally 60 min before formalin. The text has this: Inflammatory pain is associated with tissue damage and the resulting inflammatory process is related to conditions such as arthritis and many autoimmune disease states. The formalin test in rats is a widely used tool when studying inflammatory pain in animals (Dubuisson, D., and Dennis, S. G. (1977), Pain 4:161-174; Wheeler-Aceto, H., et al. (1990), Pain 40:229-238). This model allows the study of two different types of pain that appears in two separate phases: phase 1 which is a direct stimulation of the nerve by the formalin and thus resembles the acute pain, followed by phase 2 which is an inflammatory-reaction induced pain similar to the pain in, e.g., arthritis. […]
In accordance with the literature (Sufka K J, et al., Eur J Pain (1998), 2(4):351-8; Maione S, et al., Br. J. Pharmacol. 2007; 150:766-781), nociceptive response was monitored in consecutive 5-min periods for 60 min following formalin injection. In particular, nociceptive responses were recorded by measuring the cumulative time of lifting, licking, shaking and flinching of the injected paw per unit time (5 minutes). The nociceptive response was measured both as every 5 minutes and as total time of the first phase (0-15 min) and the second phase (15-60 min). […]

Take `COc1ccc(C=NNC(=N)N)c(Cl)c1OC` [N-(2-chloro-3,4-dimethoxybenzylideneamino)guanidine]: the “IL-6 release induced by 5-HT and LPS” value in test [1] (1 μM 5-HT + LPS 50 ng/ml, test substance 0.1, 1 or 10 μM, FIG. 7A) is listed as “reduces the IL-6 response”. For the same compound, the “IL-6 production induced by BW 723C86 (5-HT2B agonist) and LPS” value in test [1] (1 μM BW 723C86 + LPS 50 ng/ml, compound 0.1, 1, 10 μM, FIG. 4, FIG. 7B) was “in a dose-dependent way is counteracted; also recorded: reversed the effects”. The “IL-6 production induced by CP 809101 (5-HT2C agonist) and LPS” value in test [1] (1 μM CP 809101 + LPS 50 ng/ml, compound 0.1, 1, 10 μM, FIG. 4, FIG. 7B) is reported as “is counteracted; also recorded: reversed the effects”. Moreover, in test [2], the “nociceptive response, first phase (0-15 min)” value is “without significantly influencing”. Besides, in test [2] (FIG. 6), the “nociceptive response, phase 2 (15-60 min), inflammatory pain” value is “significantly reduced the inflammatory pain response”.
